US20240190944A1, “MODIFIED CELLS FOR THE PRODUCTION OF A RECOMBINANT PRODUCT OF INTEREST” (Genentech, Inc., priority 2021, published 2024)

Legend:
Assay type in all cases: cell-based, Chinese Hamster
[1] = system: mAb2-expressing CHO-K1 cells; assay: Fed-batch production of mAb2-expressing CHO cell line with PDGFRa inhibitor and/or insulin
Text: (§1) FIGS. 3A-3D. PDGFRa signaling is important for cell growth, e.g., CHO cell growth, and growth factor signaling is intact after PDGFRa inhibition. FIG. 3A is a schematic of PDGFRa and insulin receptor (IR) signaling upstream of protein synthesis, cell cycle progression and cell proliferation. Bolder arrows indicate stronger activation by respective receptors. FIG. 3B depicts empty CHO-K1 host cells VCC and % viability after 4 days in the presence or absence of PDGFRa inhibitor and/or insulin in the seed train media. FIG. 3C depicts western blot analysis of empty host CHO-K1 cells (of FIG. 3B) after 4 days in the presence or absence of PDGFRa inhibitor and/or insulin in the seed train media. FIG. 3D depicts Day 12 relative IVCC, % viability, relative titer and relative Qp of mAb2-expressing CHO-K 1 cells in the presence of PDGFRa inhibitor and/or insulin during production.
Fed-batch production cultures were performed with proprietary chemically defined medium using different vessels (tube-spin and AMBR15) along with bolus feeds on Days 3, 7 and 10 as previously mentioned (Hsu, Aulakh, Traul, & Yuk, 2012). […] Titers were determined using Protein-A affinity chromatography with UV detection. Percent viability and viable cell count were determined using a Vi-Cell XR instrument (Beckman Coulter Item #383721). […]

empty host CHO-K1 cells = assay: Growth of empty host CHO-K1 cells in seed train media with PDGFRa inhibitor and/or insulin
Text: as §1
FIGS. 4A-4D. FIG. 4A depicts empty host CHO-K1 cells viable cell count (VCC) and % viability after 4 days in increasing PDGFRa inhibitor concentrations in the seed train media. FIG. 4B depicts western blot analysis of empty host CHO-K1 cells after 4 days in increasing PDGFRa inhibitor concentrations in the seed train media. FIG. 4C depicts western blot analysis mAb2-expressing CHO-K 1 cells in production in the presence or absence of PERK inhibitor at 10 μM concentration. […]

PDGFRa = assay: Chemical UPR induction in CHO cultures, PDGFRa western blot and qPCR; details: mAb1-expressing CHO DG44 and CHO-K1 seed train cultures; optimal pH
Text: FIGS. 1A-1G. […] FIG. 1C depicts western blot analysis of two mAb1-expressing host cell lines, CHO DG44 and CHO-K1, treated with chemical UPR inducers: tunicamycin and DTT. FIG. 1D depicts qPCR analysis of PDGFRa mRNA levels in both host cell lines of FIG. 1C treated with tunicamycin and DTT. FIG. 1E depicts western blot analysis of mAb1-expressing CHO-K1 cells treated with tunicamycin to activate the UPR in the presence of UPR pathway-specific inhibitors. […] FIG. 1F depicts qPCR analysis of PDGFRa mRNA levels in CHO-K1 cells treated with tunicamycin in the presence of UPR pathway-specific inhibitors. FIG. 1G depicts western blot analysis of WT and PERK KO empty host CHO-K1 (Clone 9) cell lines treated with tunicamycin and PERK inhibitor.
FIGS. 2A-2E. FIG. 2A depicts western blot analysis of mAb1-expressing CHO-K1 cells treated with thapsigargin to activate the UPR in the presence of different UPR pathway-specific inhibitors. […]
An interesting phenomenon was previously described where activation of UPR in seed train culture, triggered by lower pH conditions in a particular CHO cell line, negatively affected culture growth in production media at target pH (Tung, et al., 2018). When exposed to low pH conditions, high intracellular BiP levels were detected in this cell line that correlated to low growth profiles during production and poor bioprocess outcomes (Tung, et al., 2018). […]

Molecule: COc1cc2ncc(-c3ccccc3)nc2cc1OC [PDGFRa inhibitor, AG-1296]
- cell growth and cell viability in fed-batch production ([1]; PDGFRa inhibition on Day 3): significantly decreased cell growth, without affecting cell viability
- reduction of cell growth (empty host CHO-K1 cells; 20 μM, 4 days): approximately 50%

Molecule: Tunicamycin
- fully functional PDGFRa levels (protein and mRNA) (PDGFRa): reduced at both the protein and mRNA levels

Molecule: insulin
- cell growth inhibition in production culture after addition of insulin ([1]; insulin on Day 3, PDGFRa inhibited): partially rescued the observed cell growth inhibition
- cellular growth of cultures treated with the PDGFRa inhibitor after addition of insulin (empty host CHO-K1 cells): partially rescued cellular growth
